Test results from article PMC7382742, “Identification of Potential Inhibitors of Calcium/Calmodulin-Dependent Protein Kinase IV from Bioactive Phytoconstituents” (Oxidative Medicine and Cellular Longevity, 2020).

Assays:
[1] = target: T1, Calcium/calmodulin-dependent protein kinase IV (CaMKIV) (Homo sapiens, UniProt Q16566); test: malachite green (BIOMOL Green) ATPase inhibition assay with recombinant refolded CaMKIV; also intrinsic fluorescence quenching (binding constant […] ^-1); type: biochemical
T1 construct: gene CAMK4; CaMKIV kinase domain
T1 sequence (Q16566 46-300 limits assumed): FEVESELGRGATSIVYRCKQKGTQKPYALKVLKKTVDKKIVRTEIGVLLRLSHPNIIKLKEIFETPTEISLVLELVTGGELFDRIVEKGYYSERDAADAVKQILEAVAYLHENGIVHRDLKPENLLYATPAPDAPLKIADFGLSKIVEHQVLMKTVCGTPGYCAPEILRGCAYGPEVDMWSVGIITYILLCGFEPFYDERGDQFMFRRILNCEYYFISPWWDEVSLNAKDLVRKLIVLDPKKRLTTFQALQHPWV

[2] = target: T1, Calcium/calmodulin-dependent protein kinase IV (CaMKIV); test: malachite green (BIOMOL Green) ATPase inhibition assay with recombinant refolded CaMKIV; also intrinsic fluorescence quenching (Ksv […] ^-1); type: biochemical

`O=c1oc2c(O)c(O)cc3c(=O)oc4c(O)c(O)cc1c4c23` [EA, ellagic acid] was tested, and the IC50 [1] was 39.7 ± 8.6 µM.
`O=c1c(O)c(-c2ccc(O)c(O)c2)oc2cc(O)cc(O)c12` [quercetin] gave an IC50 [2] of 61.3 ± 5.4 µM.
